Data from US10093883B2, “Glucose gemini surfactant compound and method for preparation thereof” (ZHEJIANG UNIVERSITY, priority 2014, dated 2018).

Experiment: Surface activity test: critical micelle concentration (cmc), platinum plate method
Assay type: physicochemical
Conditions: 20° C.
Procedure: The critical micelle concentration (cmc) of the target product was determined as 0.0068 mmol/L at 20° C., which was 3 times […] than that of the compound dodecyl glucose gemini surfactant (cmc=0.02 mmol/L) and is suitable for separation and extraction of detergents and biofilm proteins.

SMILES | critical micelle concentration (cmc) [mmol/L]
CCCCCCCCCCCCOCC(COCCOCC(COCCCCCCCCCCCC)O[C@@H]1OC(CO)[C@@H](O)C(O)C1O)O[C@@H]1OC(CO)[C@@H](O)C(O)C1O (some centres unmarked) [dodecyl glucose gemini surfactant] | 0.02
CCCCCCCCCCCCCCOCC(COCCOCC(COCCCCCCCCCCCCCC)O[C@@H]1OC(CO)[C@@H](O)C(O)C1O)O[C@@H]1OC(CO)[C@@H](O)C(O)C1O (some centres unmarked) [tetradecyl glucose gemini surfactant] | 0.053
